According to PubChem BioAssay (NCI):
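Tested at 5 concentrations; 48 h exposure; 96-well plates; endpoints linearly interpolated, else capped at highest concentration. At the GI50, growth is halved. TGI denotes the concentration required for complete inhibition of growth.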

What was measured:
Assay in all cases: DTP human tumour cell line panel, 48 h
SF-268 CNS = tested on: SF-268 CNS
T-47D breast = tested on: T-47D breast
LOX IMVI melanoma = tested on: LOX IMVI melanoma
SF-295 CNS = tested on: SF-295 CNS
NCI-H23 lung = tested on: NCI-H23 lung
HL-60(TB) leukemia = tested on: HL-60(TB) leukemia
MCF7 breast = tested on: MCF7 breast
RXF 393 renal = tested on: RXF 393 renal
SK-MEL-2 melanoma = tested on: SK-MEL-2 melanoma
NCI-H226 lung = tested on: NCI-H226 lung
K-562 leukemia = tested on: K-562 leukemia
DU-145 prostate = tested on: DU-145 prostate
OVCAR-4 ovarian = tested on: OVCAR-4 ovarian
OVCAR-3 ovarian = tested on: OVCAR-3 ovarian
SK-OV-3 ovarian = tested on: SK-OV-3 ovarian
786-0 renal = tested on: 786-0 renal
UACC-257 melanoma = tested on: UACC-257 melanoma
PC-3 prostate = tested on: PC-3 prostate
CAKI-1 renal = tested on: CAKI-1 renal
SK-MEL-5 melanoma = tested on: SK-MEL-5 melanoma
CCRF-CEM leukemia = tested on: CCRF-CEM leukemia
HCT-116 colon = tested on: HCT-116 colon
OVCAR-5 ovarian = tested on: OVCAR-5 ovarian
A549 NSCLC = tested on: A549 NSCLC
MDA-MB-231 breast = tested on: MDA-MB-231 breast
NCI/ADR-RES ovarian = tested on: NCI/ADR-RES ovarian
SR leukemia = tested on: SR leukemia
NCI-H522 lung = tested on: NCI-H522 lung
SNB-19 CNS = tested on: SNB-19 CNS
M14 melanoma = tested on: M14 melanoma
SN12C renal = tested on: SN12C renal
U251 CNS = tested on: U251 CNS
MALME-3M melanoma = tested on: MALME-3M melanoma
HS 578T breast = tested on: HS 578T breast
TK-10 renal = tested on: TK-10 renal
IGROV1 ovarian = tested on: IGROV1 ovarian
KM12 colon = tested on: KM12 colon
SW-620 colon = tested on: SW-620 colon
HOP-62 NSCLC = tested on: HOP-62 NSCLC
MDA-MB-435 = tested on: MDA-MB-435
UO-31 renal = tested on: UO-31 renal
UACC-62 melanoma = tested on: UACC-62 melanoma
SF-539 CNS = tested on: SF-539 CNS
RPMI-8226 leukemia = tested on: RPMI-8226 leukemia
SK-MEL-28 melanoma = tested on: SK-MEL-28 melanoma
A498 renal = tested on: A498 renal
OVCAR-8 ovarian = tested on: OVCAR-8 ovarian
MOLT-4 leukemia = tested on: MOLT-4 leukemia
NCI-H460 lung = tested on: NCI-H460 lung
COLO 205 colon = tested on: COLO 205 colon

Compound: Nc1cc(N)c2nc(-c3ccccc3)c(Sc3ccc(Cl)c(Cl)c3)nc2c1
- GI50 (SF-268 CNS): 13.7 µM
- TGI (SF-268 CNS): 51.1 µM
- GI50 (T-47D breast): 13.3 µM
- TGI (T-47D breast): > 100 µM
- GI50 (LOX IMVI melanoma): 7.36 µM
- TGI (LOX IMVI melanoma): 24.5 µM
- GI50 (SF-295 CNS): 17.7 µM
- TGI (SF-295 CNS): 60.1 µM
- GI50 (NCI-H23 lung): 12.5 µM
- TGI (NCI-H23 lung): 34.5 µM
- GI50 (HL-60(TB) leukemia): 8.02 µM
- TGI (HL-60(TB) leukemia): > 100 µM
- GI50 (MCF7 breast): 5.3 µM
- TGI (MCF7 breast): 37.8 µM
- GI50 (RXF 393 renal): 14 µM
- TGI (RXF 393 renal): 56.7 µM
- GI50 (SK-MEL-2 melanoma): 6.2 µM
- TGI (SK-MEL-2 melanoma): 31.1 µM
- GI50 (NCI-H226 lung): 3.05 µM
- TGI (NCI-H226 lung): 9.19 µM
- GI50 (K-562 leukemia): 16 µM
- TGI (K-562 leukemia): > 100 µM
- GI50 (DU-145 prostate): 11.1 µM
- TGI (DU-145 prostate): 25 µM
- GI50 (OVCAR-4 ovarian): 20 µM
- TGI (OVCAR-4 ovarian): > 100 µM
- GI50 (OVCAR-3 ovarian): 11.7 µM
- TGI (OVCAR-3 ovarian): 46.4 µM
- GI50 (SK-OV-3 ovarian): 14.7 µM
- TGI (SK-OV-3 ovarian): 39.4 µM
- GI50 (786-0 renal): 22 µM
- TGI (786-0 renal): 92.1 µM
- GI50 (UACC-257 melanoma): 17.6 µM
- TGI (UACC-257 melanoma): 59 µM
- GI50 (PC-3 prostate): 5.78 µM
- TGI (PC-3 prostate): 35.9 µM
- GI50 (CAKI-1 renal): 14 µM
- TGI (CAKI-1 renal): 41.1 µM
- GI50 (SK-MEL-5 melanoma): 21.4 µM
- TGI (SK-MEL-5 melanoma): 95.5 µM
- GI50 (CCRF-CEM leukemia): 2.52 µM
- TGI (CCRF-CEM leukemia): > 100 µM
- GI50 (HCT-116 colon): 9.43 µM
- TGI (HCT-116 colon): 47.9 µM
- GI50 (OVCAR-5 ovarian): 38.9 µM
- TGI (OVCAR-5 ovarian): 59.5 µM
- GI50 (A549 NSCLC): 13.6 µM
- TGI (A549 NSCLC): 51.9 µM
- GI50 (MDA-MB-231 breast): 16.6 µM
- TGI (MDA-MB-231 breast): 54.2 µM
- GI50 (NCI/ADR-RES ovarian): 19.1 µM
- TGI (NCI/ADR-RES ovarian): 60.4 µM
- GI50 (SR leukemia): 4.63 µM
- TGI (SR leukemia): 35.3 µM
- GI50 (NCI-H522 lung): 7.67 µM
- TGI (NCI-H522 lung): 34 µM
- GI50 (SNB-19 CNS): 17 µM
- TGI (SNB-19 CNS): 58.1 µM
- GI50 (M14 melanoma): 32.2 µM
- TGI (M14 melanoma): > 100 µM
- GI50 (SN12C renal): 23.2 µM
- TGI (SN12C renal): > 100 µM
- GI50 (U251 CNS): 10.3 µM
- TGI (U251 CNS): > 100 µM
- GI50 (MALME-3M melanoma): 19.6 µM
- TGI (MALME-3M melanoma): 50.3 µM
- GI50 (HS 578T breast): 30 µM
- TGI (HS 578T breast): > 100 µM
- GI50 (TK-10 renal): 14.6 µM
- TGI (TK-10 renal): 31.8 µM
- GI50 (IGROV1 ovarian): 2.93 µM
- TGI (IGROV1 ovarian): 27.8 µM
- GI50 (KM12 colon): 11.3 µM
- TGI (KM12 colon): > 100 µM
- GI50 (SW-620 colon): 20.9 µM
- TGI (SW-620 colon): 83.6 µM
- GI50 (HOP-62 NSCLC): 12.4 µM
- TGI (HOP-62 NSCLC): 78.5 µM
- GI50 (MDA-MB-435): 18.3 µM
- TGI (MDA-MB-435): 60.9 µM
- GI50 (UO-31 renal): 14 µM
- TGI (UO-31 renal): 76.7 µM
- GI50 (UACC-62 melanoma): 6.7 µM
- TGI (UACC-62 melanoma): 42.8 µM
- GI50 (SF-539 CNS): 14.4 µM
- TGI (SF-539 CNS): 41.8 µM
- GI50 (RPMI-8226 leukemia): 3.81 µM
- TGI (RPMI-8226 leukemia): 31.6 µM
- GI50 (SK-MEL-28 melanoma): 13.7 µM
- TGI (SK-MEL-28 melanoma): 56.9 µM
- GI50 (A498 renal): 21.9 µM
- TGI (A498 renal): 49.9 µM
- GI50 (OVCAR-8 ovarian): 24.7 µM
- TGI (OVCAR-8 ovarian): > 100 µM
- GI50 (MOLT-4 leukemia): 4.08 µM
- TGI (MOLT-4 leukemia): > 100 µM
- GI50 (NCI-H460 lung): 10.5 µM
- TGI (NCI-H460 lung): 33.5 µM
- GI50 (COLO 205 colon): 10.8 µM
- TGI (COLO 205 colon): 33.6 µM
